In the NIST ThermoML archive (doi:10.1016/j.jct.2006.10.008):
± gives the expanded uncertainty stated by the source.

Legend:
[1] = xn = mol fraction of the nth substance listed; details: 298.15 K, 101 kPa, Liquid
[2] = excess molar enthalpy (molar enthalpy of mixing); xn = mol fraction of the nth substance listed; details: 298.15 K, 101 kPa, Liquid, Calvet calorimetry

## ClCCCCCl [1,4-dichlorobutane] + CCOC=O
[1]; x2 = 0.0774
  mass density: 1120.56 ± 0.56 kg/m3
[1]; x2 = 0.1549
  mass density: 1107.96 ± 0.54 kg/m3
[1]; x2 = 0.229
  mass density: 1095.35 ± 0.51 kg/m3
[1]; x2 = 0.2982
  mass density: 1083.08 ± 0.49 kg/m3
[1]; x2 = 0.3653
  mass density: 1070.71 ± 0.46 kg/m3
[1]; x2 = 0.4302
  mass density: 1058.33 ± 0.44 kg/m3
[1]; x2 = 0.4921
  mass density: 1046.05 ± 0.41 kg/m3
[1]; x2 = 0.5517
  mass density: 1033.83 ± 0.39 kg/m3
[1]; x2 = 0.6131
  mass density: 1020.82 ± 0.36 kg/m3
[1]; x2 = 0.6683
  mass density: 1008.67 ± 0.34 kg/m3
[1]; x2 = 0.7211
  mass density: 996.7 ± 0.33 kg/m3
[1]; x2 = 0.7717
  mass density: 984.84 ± 0.34 kg/m3
[1]; x2 = 0.8212
  mass density: 973.13 ± 0.35 kg/m3
[1]; x2 = 0.8674
  mass density: 961.66 ± 0.37 kg/m3
[1]; x2 = 0.9134
  mass density: 949.8 ± 0.38 kg/m3
[1]; x2 = 0.9569
  mass density: 938.37 ± 0.4 kg/m3
[2]; x2 = 0.083
  excess molar enthalpy: 0.0262 ± 0.000406 kcal/mol
[2]; x2 = 0.1706
  excess molar enthalpy: 0.042 ± 0.000526 kcal/mol
[2]; x2 = 0.256
  excess molar enthalpy: 0.0527 ± 0.000598 kcal/mol
[2]; x2 = 0.3368
  excess molar enthalpy: 0.0584 ± 0.000645 kcal/mol
[2]; x2 = 0.4094
  excess molar enthalpy: 0.0582 ± 0.000645 kcal/mol
[2]; x2 = 0.473
  excess molar enthalpy: 0.055 ± 0.000621 kcal/mol
[2]; x2 = 0.5279
  excess molar enthalpy: 0.0505 ± 0.000574 kcal/mol
[2]; x2 = 0.5977
  excess molar enthalpy: 0.0395 ± 0.000502 kcal/mol
[2]; x2 = 0.6452
  excess molar enthalpy: 0.034 ± 0.000454 kcal/mol
[2]; x2 = 0.6966
  excess molar enthalpy: 0.025 ± 0.000382 kcal/mol
[2]; x2 = 0.7477
  excess molar enthalpy: 0.0167 ± 0.000311 kcal/mol
[2]; x2 = 0.803
  excess molar enthalpy: 0.0108 ± 0.000263 kcal/mol
[2]; x2 = 0.8543
  excess molar enthalpy: 0.00633 ± 0.000239 kcal/mol
[2]; x2 = 0.907
  excess molar enthalpy: 0.00373 ± 0.000215 kcal/mol
[2]; x2 = 0.9569
  excess molar enthalpy: 0.00222 ± 0.000215 kcal/mol

## ClCCCCCl [1,4-dichlorobutane] + COC=O
[1]; x2 = 0.1002
  mass density: 1123.14 ± 0.57 kg/m3
[1]; x2 = 0.1967
  mass density: 1112.22 ± 0.54 kg/m3
[1]; x2 = 0.2763
  mass density: 1102.15 ± 0.52 kg/m3
[1]; x2 = 0.3523
  mass density: 1092.16 ± 0.5 kg/m3
[1]; x2 = 0.4263
  mass density: 1081.69 ± 0.48 kg/m3
[1]; x2 = 0.4898
  mass density: 1072.05 ± 0.46 kg/m3
[1]; x2 = 0.5567
  mass density: 1061.23 ± 0.44 kg/m3
[1]; x2 = 0.615
  mass density: 1051.3 ± 0.42 kg/m3
[1]; x2 = 0.6692
  mass density: 1041.41 ± 0.4 kg/m3
[1]; x2 = 0.7199
  mass density: 1031.71 ± 0.39 kg/m3
[1]; x2 = 0.7663
  mass density: 1022.34 ± 0.37 kg/m3
[1]; x2 = 0.8116
  mass density: 1012.65 ± 0.35 kg/m3
[1]; x2 = 0.8535
  mass density: 1003.36 ± 0.33 kg/m3
[1]; x2 = 0.8907
  mass density: 994.7 ± 0.33 kg/m3
[1]; x2 = 0.9302
  mass density: 985.1 ± 0.34 kg/m3
[1]; x2 = 0.9657
  mass density: 976.07 ± 0.35 kg/m3
[2]; x2 = 0.1071
  excess molar enthalpy: 0.0424 ± 0.000526 kcal/mol
[2]; x2 = 0.2326
  excess molar enthalpy: 0.08 ± 0.000813 kcal/mol
[2]; x2 = 0.3559
  excess molar enthalpy: 0.1062 ± 0.001 kcal/mol
[2]; x2 = 0.4541
  excess molar enthalpy: 0.1196 ± 0.00112 kcal/mol
[2]; x2 = 0.5426
  excess molar enthalpy: 0.1239 ± 0.00115 kcal/mol
[2]; x2 = 0.5971
  excess molar enthalpy: 0.123 ± 0.00115 kcal/mol
[2]; x2 = 0.6515
  excess molar enthalpy: 0.1218 ± 0.00112 kcal/mol
[2]; x2 = 0.7083
  excess molar enthalpy: 0.1165 ± 0.0011 kcal/mol
[2]; x2 = 0.7662
  excess molar enthalpy: 0.108 ± 0.00103 kcal/mol
[2]; x2 = 0.8103
  excess molar enthalpy: 0.09393 ± 0.000908 kcal/mol
[2]; x2 = 0.8803
  excess molar enthalpy: 0.0755 ± 0.000789 kcal/mol
[2]; x2 = 0.9274
  excess molar enthalpy: 0.0548 ± 0.000645 kcal/mol
[2]; x2 = 0.9702
  excess molar enthalpy: 0.032 ± 0.000478 kcal/mol

## ClCCCCCCl [1,5-dichloropentane] + CCCCOC=O
[1]; x2 = 0.0753
  mass density: 1081.49 ± 0.48 kg/m3
[1]; x2 = 0.1366
  mass density: 1070.16 ± 0.46 kg/m3
[1]; x2 = 0.2613
  mass density: 1046.7 ± 0.41 kg/m3
[1]; x2 = 0.3251
  mass density: 1034.45 ± 0.39 kg/m3
[1]; x2 = 0.3849
  mass density: 1022.81 ± 0.37 kg/m3
[1]; x2 = 0.4446
  mass density: 1011 ± 0.34 kg/m3
[1]; x2 = 0.5039
  mass density: 999.1 ± 0.32 kg/m3
[1]; x2 = 0.6199
  mass density: 975.33 ± 0.35 kg/m3
[1]; x2 = 0.676
  mass density: 963.59 ± 0.37 kg/m3
[1]; x2 = 0.732
  mass density: 951.7 ± 0.38 kg/m3
[1]; x2 = 0.787
  mass density: 939.85 ± 0.39 kg/m3
[1]; x2 = 0.841
  mass density: 928.06 ± 0.41 kg/m3
[1]; x2 = 0.8939
  mass density: 916.34 ± 0.42 kg/m3
[1]; x2 = 0.9477
  mass density: 904.29 ± 0.44 kg/m3
[2]; x2 = 0.0722
  excess molar enthalpy: 0.000717 ± 0.000191 kcal/mol
[2]; x2 = 0.1463
  excess molar enthalpy: -0.000837 ± 0.000191 kcal/mol
[2]; x2 = 0.2242
  excess molar enthalpy: -0.0054 ± 0.000239 kcal/mol
[2]; x2 = 0.2989
  excess molar enthalpy: -0.0111 ± 0.000287 kcal/mol
[2]; x2 = 0.3685
  excess molar enthalpy: -0.0188 ± 0.000335 kcal/mol
[2]; x2 = 0.4319
  excess molar enthalpy: -0.0268 ± 0.000406 kcal/mol
[2]; x2 = 0.4894
  excess molar enthalpy: -0.0315 ± 0.00043 kcal/mol
[2]; x2 = 0.5395
  excess molar enthalpy: -0.0354 ± 0.000454 kcal/mol
[2]; x2 = 0.5701
  excess molar enthalpy: -0.037 ± 0.000478 kcal/mol
[2]; x2 = 0.5843
  excess molar enthalpy: -0.0369 ± 0.000478 kcal/mol
[2]; x2 = 0.6266
  excess molar enthalpy: -0.0344 ± 0.000454 kcal/mol
[2]; x2 = 0.6861
  excess molar enthalpy: -0.0311 ± 0.00043 kcal/mol
[2]; x2 = 0.7462
  excess molar enthalpy: -0.0271 ± 0.000406 kcal/mol
[2]; x2 = 0.8107
  excess molar enthalpy: -0.0216 ± 0.000359 kcal/mol
[2]; x2 = 0.8755
  excess molar enthalpy: -0.0156 ± 0.000311 kcal/mol
[2]; x2 = 0.9382
  excess molar enthalpy: -0.00894 ± 0.000263 kcal/mol

## ClCCCCCCl [1,5-dichloropentane] + CCCOC=O
[1]; x2 = 0.0753
  mass density: 1084.21 ± 0.49 kg/m3
[1]; x2 = 0.1495
  mass density: 1073.17 ± 0.47 kg/m3
[1]; x2 = 0.2212
  mass density: 1062.01 ± 0.44 kg/m3
[1]; x2 = 0.2884
  mass density: 1051.29 ± 0.42 kg/m3
[1]; x2 = 0.3607
  mass density: 1039.4 ± 0.4 kg/m3
[1]; x2 = 0.4174
  mass density: 1029.7 ± 0.38 kg/m3
[1]; x2 = 0.4802
  mass density: 1018.63 ± 0.36 kg/m3
[1]; x2 = 0.5386
  mass density: 1008.06 ± 0.34 kg/m3
[1]; x2 = 0.6024
  mass density: 996.11 ± 0.33 kg/m3
[1]; x2 = 0.6568
  mass density: 985.57 ± 0.34 kg/m3
[1]; x2 = 0.7118
  mass density: 974.66 ± 0.35 kg/m3
[1]; x2 = 0.8133
  mass density: 953.48 ± 0.38 kg/m3
[1]; x2 = 0.8586
  mass density: 943.64 ± 0.39 kg/m3
[1]; x2 = 0.9056
  mass density: 933.22 ± 0.4 kg/m3
[1]; x2 = 0.9555
  mass density: 921.68 ± 0.42 kg/m3
[2]; x2 = 0.0792
  excess molar enthalpy: 0.0136 ± 0.000287 kcal/mol
[2]; x2 = 0.1664
  excess molar enthalpy: 0.0219 ± 0.000359 kcal/mol
[2]; x2 = 0.2538
  excess molar enthalpy: 0.0276 ± 0.000406 kcal/mol
[2]; x2 = 0.3307
  excess molar enthalpy: 0.0289 ± 0.000406 kcal/mol
[2]; x2 = 0.4063
  excess molar enthalpy: 0.0282 ± 0.000406 kcal/mol
[2]; x2 = 0.4789
  excess molar enthalpy: 0.0251 ± 0.000382 kcal/mol
[2]; x2 = 0.5175
  excess molar enthalpy: 0.022 ± 0.000359 kcal/mol
[2]; x2 = 0.5645
  excess molar enthalpy: 0.0176 ± 0.000335 kcal/mol
[2]; x2 = 0.6145
  excess molar enthalpy: 0.0142 ± 0.000287 kcal/mol
[2]; x2 = 0.6665
  excess molar enthalpy: 0.00935 ± 0.000263 kcal/mol
[2]; x2 = 0.7229
  excess molar enthalpy: 0.00478 ± 0.000215 kcal/mol
[2]; x2 = 0.7817
  excess molar enthalpy: 0.0016 ± 0.000191 kcal/mol
[2]; x2 = 0.8389
  excess molar enthalpy: -0.00249 ± 0.000215 kcal/mol
[2]; x2 = 0.8948
  excess molar enthalpy: -0.00507 ± 0.000215 kcal/mol
[2]; x2 = 0.9503
  excess molar enthalpy: -0.00287 ± 0.000215 kcal/mol
